Measured values from US8895579B2, “Heterotricyclic AMPA receptor antagonists for treatment of epilepsy, pain, and other neurological disorders and diseases” (Northwestern University, priority 2010, dated 2014).
Values joined by “and” are separate entries in the source; they are usually repeats but may differ in a detail not shown here. Equal entries are not always repeated. “Also recorded” adds a separate entry of the source.

Columns and labels:
[1] = target: T1, heteromeric GluA1/GluA2 AMPA receptor (Rattus norvegicus, UniProt P19490+P19491); assay: Whole-cell patch clamp of recombinant GluA1/GluA2 receptors in HEK293-T/17 cells; format: cell-based
T1 construct: expressed in transfected cells; host or cells: HEK293-T/17 (CRL-11268)
Procedure: (§1) Cell Culture and Transfection. Human embryonic kidney cells expressing T-antigen, clone 17 (HEK293-T/17) (CRL-11268) were cultured at 37° C. with 5% CO2 in DMEM, including 100 μg/mL penicillin, 100 μg/mL streptomycin, and 10% heat-inactivated fetal bovine serum. Cells were split twice per week. For transfection, HEK293-T/17 cells were plated at 3×10^4 cells/cm^2 for pharmacology experiments and 5×10^3 cells/cm^2 for physiology experiments in fresh medium 24 h prior to transfection. Cells were transfected with AMPA or KA receptor plasmid cDNAs using Mirus Trans-IT transfection reagent (Minus Bio Corporation, Madison, Wis.) at a ratio of 1 μg cDNA: 3 μL Trans-1T reagent and maintained in transfection medium overnight followed by a media change the next day. Transfected cells were maintained in this medium until the experiment was conducted (48-72 h total post transfection).
Electrophysiology. For analysis of recombinant receptors, HEK293-T/17 cells were co-transfected with 0.2 μg of iGluR cDNA and 0.05 μg of eGFP. For heterologous GluA1/GluA2 receptors, the GluA1:GluA2 cDNA ratio was 1:6. Two to three days post-transfection, eGFP-expressing cells were lifted from the cover slip and voltage clamped in whole cell mode. The internal solution contained (in mM) 30 CsF, 110 CsCl, 10 HEPES, 4 NaCl, 5 EGTA and 0.5 CaCl2 (pH 7.3), while the extracellular solution contained (in mM) 140 NaCl, 10 glucose, 10 Cs-HEPES, 3 KCl, 2 CaCl2 and 1 MgCl2 (pH 7.3). Borosilicate patch electrodes were pulled and fire polished to 2-3 MO resistance. Lifted cells were maintained in a laminar stream of extracellular solution from a triple-barreled flow pipe, which was rapidly translated using a piezoceramic bimorph for fast application of glutamate or kainate alone or in combination with various antagonists (the 10-90% rise time of glutamate-evoked currents was ˜1 ms). IKM compounds were applied for three minutes with analysis performed on the final one minute of drug application.
Statistical analysis. At least three separate experiments were performed for each assay. […]

GluA1 = target: T2, GluA1 (Rattus norvegicus, UniProt P19490); assay: [3H]-AMPA radioligand binding, membranes of HEK293-T/17 cells expressing GluA1; settings: 100 μM; 20 nM [3H]-AMPA; 1 h at 4° C.
T2 construct: expressed in transfected cells; host or cells: HEK293-T/17 (CRL-11268)
Procedure: Radioligand binding. HEK293-T/17 cells were transfected with 5 μg of iGluR cDNA in 100 mm^2 culture dishes. Two days post transfection, the plates were washed twice with ice-cold Dulbecco's phosphate-buffered saline (DPBS) and then incubated with 50 mM Tris (pH 7.4) and 1 mM EDTA for three minutes on ice. Cells were collected and centrifuged for five minutes at 800 g at room temperature. The cell pellet was homogenized in 50 mM Tris (pH 7.4) containing 320 mM sucrose (homogenization buffer, HB) on ice using a glass dounce homogenizer and centrifuged at 4° C. for 10 minutes at 800 g. The supernatant, containing the membrane fragments, was saved and the remaining pellet containing nuclei and unbroken cells was resuspended in HB. This homogenization process was repeated two more times and after collection of the final resulting supernatant, the remaining pellet was discarded. The collected supernatants were centrifuged at 4° C. for 20 minutes at 20000 g and the resulting supernatant was discarded leaving a membrane-containing pellet. […] Non-specific binding was determined as the amount of radioligand bound in the presence of a saturating concentration of glutamate (1 mM). Total binding was determined as the amount of radioligand bound in the absence of any competing ligands minus the non-specific binding. […]

mice = settings: Ikoma et al., 2008; Oikawa et al., 2009 and unpublished observations; cited from earlier work
[2] = target: T3, homomeric GluA3 AMPA receptor (Rattus norvegicus, UniProt P19492); assay: Whole-cell patch clamp of recombinant GluA3 receptors in HEK293-T/17 cells; format: cell-based; settings: 30 μM; 10 mM glutamate
T3 construct: expressed in transfected cells; host or cells: HEK293-T/17 (CRL-11268)
Procedure: as §1
(§2) Electrophysiology. For analysis of recombinant receptors, HEK293-T/17 cells were co-transfected with 0.2 μg of iGluR cDNA and 0.05 μg of eGFP. For heterologous GluA1/GluA2 receptors, the GluA1:GluA2 cDNA ratio was 1:6. Two to three days post-transfection, eGFP-expressing cells were lifted from the cover slip and voltage clamped in whole cell mode. […]

[3] = target: T4, homomeric GluK2a kainate receptor (Rattus norvegicus, UniProt P42260); assay: Whole-cell patch clamp of recombinant GluK2a receptors in HEK293-T/17 cells; format: cell-based; settings: 30 μM; 10 mM glutamate
T4 construct: myc; expressed in transfected cells; host or cells: HEK293-T/17 (CRL-11268)
Procedure: as §1, §2

T1 sequence (P19490 19-907 isoform P19490-2 limits assumed): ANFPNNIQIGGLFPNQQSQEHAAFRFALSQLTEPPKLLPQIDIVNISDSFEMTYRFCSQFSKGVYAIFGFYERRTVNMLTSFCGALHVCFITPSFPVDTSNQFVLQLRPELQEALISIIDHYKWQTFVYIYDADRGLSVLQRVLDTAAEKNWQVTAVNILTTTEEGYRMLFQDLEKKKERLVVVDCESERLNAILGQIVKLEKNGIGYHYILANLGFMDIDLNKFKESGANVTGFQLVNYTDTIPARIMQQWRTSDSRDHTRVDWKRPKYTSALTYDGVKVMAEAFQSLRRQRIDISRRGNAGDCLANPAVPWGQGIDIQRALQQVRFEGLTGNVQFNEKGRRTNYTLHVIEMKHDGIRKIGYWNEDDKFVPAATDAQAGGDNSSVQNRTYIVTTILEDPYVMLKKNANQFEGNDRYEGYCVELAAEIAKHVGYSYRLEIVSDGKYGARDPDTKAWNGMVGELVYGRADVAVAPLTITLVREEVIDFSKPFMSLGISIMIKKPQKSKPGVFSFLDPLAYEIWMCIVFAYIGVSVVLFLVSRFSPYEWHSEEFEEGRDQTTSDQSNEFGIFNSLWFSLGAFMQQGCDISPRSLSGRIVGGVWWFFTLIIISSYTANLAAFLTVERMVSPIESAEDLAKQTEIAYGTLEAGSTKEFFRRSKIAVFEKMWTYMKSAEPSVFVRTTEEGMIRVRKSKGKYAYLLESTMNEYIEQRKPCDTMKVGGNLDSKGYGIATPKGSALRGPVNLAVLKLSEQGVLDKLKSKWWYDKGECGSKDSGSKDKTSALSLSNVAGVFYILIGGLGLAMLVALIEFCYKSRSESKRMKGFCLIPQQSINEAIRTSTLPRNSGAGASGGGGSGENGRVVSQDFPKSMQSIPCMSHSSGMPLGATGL
T1 sequence (P19491 22-883 isoform P19491-2 limits assumed): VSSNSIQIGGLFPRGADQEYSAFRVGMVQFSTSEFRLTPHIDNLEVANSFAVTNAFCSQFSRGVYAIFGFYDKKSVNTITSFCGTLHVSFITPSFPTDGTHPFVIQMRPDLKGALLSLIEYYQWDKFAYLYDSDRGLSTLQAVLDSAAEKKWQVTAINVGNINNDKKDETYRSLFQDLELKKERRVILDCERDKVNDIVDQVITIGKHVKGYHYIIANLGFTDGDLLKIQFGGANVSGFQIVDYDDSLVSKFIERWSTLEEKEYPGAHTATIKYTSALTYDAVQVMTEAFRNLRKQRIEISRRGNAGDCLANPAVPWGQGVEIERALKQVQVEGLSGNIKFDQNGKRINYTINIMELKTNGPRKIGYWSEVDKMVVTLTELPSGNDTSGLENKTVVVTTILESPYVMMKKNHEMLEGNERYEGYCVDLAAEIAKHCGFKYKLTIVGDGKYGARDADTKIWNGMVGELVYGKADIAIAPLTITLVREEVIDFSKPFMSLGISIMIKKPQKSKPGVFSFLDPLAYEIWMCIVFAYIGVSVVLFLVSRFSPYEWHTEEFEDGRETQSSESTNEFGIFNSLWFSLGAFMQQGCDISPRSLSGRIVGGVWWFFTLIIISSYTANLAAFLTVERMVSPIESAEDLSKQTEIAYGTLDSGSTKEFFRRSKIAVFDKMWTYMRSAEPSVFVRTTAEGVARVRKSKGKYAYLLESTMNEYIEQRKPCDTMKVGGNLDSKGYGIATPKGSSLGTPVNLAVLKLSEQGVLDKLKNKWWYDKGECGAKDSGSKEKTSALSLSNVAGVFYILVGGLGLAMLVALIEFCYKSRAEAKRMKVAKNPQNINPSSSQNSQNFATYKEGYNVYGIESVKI
T2 sequence (P19490 19-907 isoform P19490-2 limits assumed): as the sequence (P19490 19-907 isoform P19490-2 limits assumed) above
T3 sequence (P19492 23-888 isoform P19492-2 limits assumed): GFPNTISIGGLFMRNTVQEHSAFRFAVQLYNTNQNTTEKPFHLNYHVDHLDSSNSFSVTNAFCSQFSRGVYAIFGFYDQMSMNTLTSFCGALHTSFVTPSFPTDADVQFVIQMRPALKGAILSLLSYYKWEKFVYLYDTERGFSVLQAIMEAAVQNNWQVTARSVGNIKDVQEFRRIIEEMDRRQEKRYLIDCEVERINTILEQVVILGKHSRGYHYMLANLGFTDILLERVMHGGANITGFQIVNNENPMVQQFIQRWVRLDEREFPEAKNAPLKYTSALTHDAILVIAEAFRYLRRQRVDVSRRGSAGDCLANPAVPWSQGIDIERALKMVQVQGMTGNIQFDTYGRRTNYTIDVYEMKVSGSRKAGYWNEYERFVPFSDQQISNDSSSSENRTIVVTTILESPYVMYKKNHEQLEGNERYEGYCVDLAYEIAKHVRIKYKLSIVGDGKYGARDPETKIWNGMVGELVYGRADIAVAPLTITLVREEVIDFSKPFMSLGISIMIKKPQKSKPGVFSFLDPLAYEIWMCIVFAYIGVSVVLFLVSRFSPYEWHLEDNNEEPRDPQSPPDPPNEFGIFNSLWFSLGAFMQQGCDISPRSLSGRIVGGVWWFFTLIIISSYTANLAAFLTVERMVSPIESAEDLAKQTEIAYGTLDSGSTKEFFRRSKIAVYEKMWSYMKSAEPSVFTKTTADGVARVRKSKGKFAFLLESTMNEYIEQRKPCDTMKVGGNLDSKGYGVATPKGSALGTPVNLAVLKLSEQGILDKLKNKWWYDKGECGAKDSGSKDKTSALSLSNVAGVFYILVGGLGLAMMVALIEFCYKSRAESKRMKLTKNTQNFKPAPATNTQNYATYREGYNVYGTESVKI
T4 sequence (P42260 32-908): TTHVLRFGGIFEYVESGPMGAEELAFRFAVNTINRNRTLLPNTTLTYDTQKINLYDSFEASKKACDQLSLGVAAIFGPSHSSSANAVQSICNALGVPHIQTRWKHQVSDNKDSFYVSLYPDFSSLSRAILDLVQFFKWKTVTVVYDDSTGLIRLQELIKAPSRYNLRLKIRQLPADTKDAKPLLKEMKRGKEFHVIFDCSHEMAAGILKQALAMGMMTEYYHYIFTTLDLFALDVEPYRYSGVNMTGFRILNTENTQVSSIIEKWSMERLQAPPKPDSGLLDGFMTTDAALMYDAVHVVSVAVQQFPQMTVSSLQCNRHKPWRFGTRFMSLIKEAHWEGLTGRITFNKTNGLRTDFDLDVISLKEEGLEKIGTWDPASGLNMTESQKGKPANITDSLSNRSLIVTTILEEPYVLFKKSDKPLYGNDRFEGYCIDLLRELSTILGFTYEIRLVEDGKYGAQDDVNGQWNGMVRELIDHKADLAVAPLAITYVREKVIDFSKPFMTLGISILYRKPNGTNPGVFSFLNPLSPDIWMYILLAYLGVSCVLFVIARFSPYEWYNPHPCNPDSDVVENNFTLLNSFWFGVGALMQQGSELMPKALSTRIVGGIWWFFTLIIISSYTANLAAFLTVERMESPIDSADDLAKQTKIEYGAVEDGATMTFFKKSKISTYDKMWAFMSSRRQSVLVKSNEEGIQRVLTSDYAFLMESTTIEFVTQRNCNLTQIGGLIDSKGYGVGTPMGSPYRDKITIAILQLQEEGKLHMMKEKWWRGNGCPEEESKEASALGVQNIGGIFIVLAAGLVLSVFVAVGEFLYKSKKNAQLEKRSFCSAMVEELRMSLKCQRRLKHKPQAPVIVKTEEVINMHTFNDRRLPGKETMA

With `O=C(O)C[C@@]12O[C@H]3C=CCN[C@H]3C1CN[C@H]2C(=O)O` (some centres unmarked) [IKM-159] the IC50 [1] was 26 ± 2 µM, the “GluA1/GluA2 peak amplitude as percent of basal peak amplitude” value ([1]; 30 μM, 10 mM glutamate) was 56±5% and the “reduction in GluA1/GluA2 peak current amplitude” value ([1]; 30 μM, 10 mM glutamate) was 44±5%. For the same compound, the “[3H]AMPA bound as percent of total (specific) binding in absence of competing ligand” value (GluA1) was 135±23% and 134±23%, the “behavioral phenotype in mice” value (mice) was “hypoactive phenotypes similar to cataleptic states; also recorded: marked hypoactivity and immobility” and the “GluA3 peak amplitude as percent of basal peak amplitude” value [2] was 83±2%. For the same compound, the “reduction in GluA3 peak current amplitude” value [2] was 17±2% and the “GluK2a peak amplitude as percent of basal peak glutamate current” value [3] was 93±2%.
